# Measurements from patent publication US20070154965A1, “Chlorotoxin-labeled nanoparticle compositions and methods for targeting primary brain tumors” (priority 2005, published 2007).
# Tested on: 9L cells
# Assay: Transwell migration (matrigel invasion) assay
# Type: cell-based, rat
# Conditions: 4 μg/ml free chlorotoxin, 24 hrs
# Experimental: Transwell migration assay. The assay was performed by a method reported previously to assess the bioactivity of chlorotoxin. See Deshane et al., J. Biol. Chem. 2003, 278:4135-4144, expressly incorporated herein in its entirety. Prior to the experiment, matrigel invasion chamber inserts (BD Biosciences, Bedford, Mass.) of 8 μm pore size were rehydrated. The lower surfaces of the chamber inserts were immersed in 5 μg/ml solution of vitronectin for 8 hours. 9L cells were then plated at a density of 2.5×10^5 cells per chamber. Cells were treated with solutions of 4 μg/ml of chlorotoxin, and 10 μg Fe/ml of NPCs, respectively. The chambers were then incubated in a 37° C. humidified incubator maintained at 5% CO2 for 24 hrs. The cells on the upper inserts were scrubbed off, and the invaded cells were fixed and stained with Diff-Quik stain kit (IMEB INC., Chicago, Ill.). The filters were then detached from the inserts and mounted on glass slides using immersion oil and imaged on a Nikon E800 upright microscope. Relative inhibition of cell invasion was determined through reduction of migrating cells in presence of chlorotoxin and NPCs. Triplicates of each sample were prepared and cell counts were obtained from five random spots on each filter. The data was then averaged and presented as a relative number of invasive cells per treatment.
substance,measurement,value
chlorotoxin,inhibition of cell invasion,approximately 88%
